Where two headings read alike, the source gives them in different places. Where a SMILES comes first, the peptide text is derived from it. [ ]: non-standard residue; d: D form. Orn = NCCC[C@H](N)C(=O)O
Experiments:
yeast = assay: Antibiotic activity, yeast; format: cell-based; conditions: average activity calculated from Table II
Text: (§1) The following bacterial strains were utilized: Escherichia coli UB1005 (wt) and its antibiotic supersusceptible derivative DC2 (Clark, 1984); Excherichia coli SC9251 and its polymixin B rasistant mutant pmrA SC9252 (Peterson, et al., 1987) Pseudomonas aeruginosa H187 (wt) (Angus, et al., 1987) and its antibiotic-sensitive derivative H188 (Zimmerman, W, Antimicrob. Agents Chemother. 18: 94-100, 1980); methicillin sensitive Staphylococcus aureus K147 (Kreiswirth, et al., 1983); Staphylococcus aureus SAP0017, a methicillin resistant clinical isolate from Dr. A. Chow (University of British Columia); Bacillus subtilis, an environmental wt lab strain. Enterococcus faecalis are ATCC 29212 cells and Staphylococcus epidermidis was a clinical isolate from Dr. D. Speert (University of British Columbia). Antifungal activity was tested using a clinical lab isolate of Candida albicans. Salmonella typhinurium C57 and C610 (Fields, P.I., et al., Science 243: 1059-1062 (1989) Corynebacterium xerosis was an environmental isolate (University of British Columbia).
(§2) It is now apparent that agar-based assays severely underestimate antifungal activity as well as activity against gram negative microorganisms (Kondejewski, et al., 1996). Consequently, in the studies reported herein, a liquid-broth method was used to measure the antibiotic properties of the peptides. […] Briefly, cells were grown overnight at 37° C. in LB and diluted in the same medium. Serial dilutions of antibiotics were added to the microtitre plates in a volume of 100 μL followed by 10 μL of bacteria to give a final inoculum of 5×10^5 CFU/mL. Plates were incubated at 37° C. overnight and MICs determined as the lowest antibiotic concentration that inhibited growth.
(§3) The results from antimicrobial and hemolytic assays are combined to provide a “Therapeutic Index” (TI) for each peptide with respect to individual microorganisms. As reported herein, the TI is calculated as the hemolytic activity divided by the antimicrobial activity. The TI thus is a measure of specificity of the particular peptide for microbial membranes as opposed to human blood cell membranes. In the present studies, antimicrobial activities are reported as minimum inhibitory concentrations (MIC)—the lowest concentration of peptide (μg/ml) found to inhibit growth of the particular microbe. Hemolytic activity is reported as the concentration of peptide that effected complete lysis of blood cells after four hours. Thus, in the context of the present invention high TI values indicate microbial specificity and relative lack of toxicity.

E. coli SC9251 = assay: MIC, liquid-broth microtitre dilution; format: cell-based, Escherichia coli; conditions: unit from Table 10
Text: as §1, §2

E. coli SC9252 = assay: MIC, liquid-broth microtitre dilution; format: cell-based, Escherichia coli; conditions: unit from Table 10
Text: as §1, §2

[1] = test system: gram negative microorganisms; format: cell-based
Text: as §1, §2, §3

[2] = test system: gram positive microorganisms; format: cell-based; conditions: average activity calculated from Table II
Text: as §1, §2, §3

E. coli UB1005 = format: cell-based, Escherichia coli; conditions: for Antibiotic activity (Table 11, ring analogs): E. coli UB1005, unit from Table 10; for Minimum Inhibitory Concentration (activity): UB1005
Summary of the method: (§4)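 Antimicrobial activity is measured by a liquid-broth assay in LB at 37 °C overnight, starting from 5×10^5 CFU/mL. Values are minimal inhibitory concentrations, i.e. the lowest concentration that stops growth.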

P. aeruginosa H187 = format: cell-based, Pseudomonas aeruginosa; conditions: for Antibiotic activity (Table 11, ring analogs): P. aeruginosa H187, unit from Table 10; for Minimum Inhibitory Concentration (activity): H187
Summary of the method: (§5)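 Broth microdilution in LB: overnight 37 °C cultures were diluted and added to serial peptide dilutions at a final 5×10^5 CFU/mL, then incubated overnight at 37 °C. MIC (μg/ml) is the lowest concentration inhibiting growth. Strains include E. faecalis ATCC 29212 and P. aeruginosa H188, the antibiotic-sensitive derivative of H187.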

E. coli DC2 = format: cell-based, Escherichia coli; conditions: for Antibiotic activity (Table 11, ring analogs): E. coli DC2, unit from Table 10; for Minimum Inhibitory Concentration (activity): DC2
Summary of the method: as §5

human erythrocytes = assay: Hemolytic activity; format: cell-based
Method: Serial dilutions of the peptides in saline were prepared in round bottom microtitre plates using 100 μL volumes. Red blood cells were diluted with saline to 1/25 packed volume of cells and 50 μL added to each well. Plates were incubated with rocking at 37° C., and the concentration required for complete lysis determined visually after 4 h.

P. aeruginosa H188 = format: cell-based, Pseudomonas aeruginosa; conditions: for Antibiotic activity (Table 11, ring analogs): P. aeruginosa H188, unit from Table 10; for Minimum Inhibitory Concentration (activity): H188
Summary of the method: as §4

[3] = Displacement of dansyl-polymyxin from LPS; format: binding, P. aeruginosa
Summary of the method: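 Peptides titrated into 3 μg/mL P. aeruginosa LPS with 2.5 μM dansyl-polymyxin (~90% site saturation) in 5 mM sodium HEPES, pH 7.0; fluorescence decrease recorded. I50 (50% probe displacement) taken from the x-intercept of a double-reciprocal plot of percent inhibition versus inhibitor concentration.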

C. Albicans = format: cell-based, Candida albicans
Summary of the method: (§6)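 Growth inhibition was scored after overnight culture at 37 °C in LB with peptide serial dilutions (inoculum 5×10^5 CFU/mL); MICs were the lowest inhibitory concentrations. Test strains were E. coli UB1005 (wild type), C. xerosis (environmental), and C. albicans and S. epidermidis (clinical isolates).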

S. typhinurium C610 = format: cell-based, Salmonella typhinurium
Summary of the method: as §4

S. typhinurium C587 = format: cell-based, Salmonella typhinurium
Summary of the method: as §4

E. faecalis = format: cell-based, Enterococcus faecalis
Summary of the method: as §4

C. xeroses = format: cell-based, Corynebacterium xerosis
Summary of the method: as §6

B. subtilis = format: cell-based, Bacillus subtilis
Summary of the method: as §4

S. aureus SAP0017 = format: cell-based, Staphylococcus aureus
Summary of the method: (§7)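 MIC read-out, μg/ml, lowest peptide concentration with no growth after overnight incubation at 37 °C in LB liquid broth. Inoculum 5×10^5 CFU/mL from overnight cultures. Therapeutic index = concentration giving complete blood-cell lysis at 4 h divided by MIC.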

S. aureus K147 = format: cell-based, Staphylococcus aureus
Summary of the method: as §7

S. epidermidis = format: cell-based, Staphylococcus epidermidis
Summary of the method: as §6

[4] = read-out: LPS binding affinity: peptide concentration to displace 50% of dansyl-polymyxin B from LPS, Tables 1, 4, 7

Structure (SMILES) | Antibiotic activity (Table 11, ring analogs) (E. coli SC9251) [μg/ml] | Antibiotic activity (Table 11, ring analogs) (E. coli SC9252) [μg/ml] | Antibiotic activity (Table 11, ring analogs) (E. coli UB1005) [μg/ml] | Antibiotic activity (Table 11, ring analogs) (P. aeruginosa H187) [μg/ml] | Antibiotic activity (Table 11, ring analogs) (E. coli DC2) [μg/ml] | Minimum Inhibitory Concentration (activity) (E. coli UB1005) [µg/mL] | Minimum Inhibitory Concentration (activity) (P. aeruginosa H187) [µg/mL] | Minimum Inhibitory Concentration (activity) (E. coli DC2) [µg/mL] | Minimum Inhibitory Concentration (activity) (S. typhinurium C610) [µg/mL] | Minimum Inhibitory Concentration (activity) (S. typhinurium C587) [µg/mL] | Hemolytic activity: peptide concentration for 100% lysis of human erythrocytes (human erythrocytes) [µg/mL] | Minimum Inhibitory Concentration (activity) (P. aeruginosa H188) [µg/mL] | IC50 [3, 4] [µM] | Minimum Inhibitory Concentration (activity) (C. Albicans) [µg/mL] | Minimum Inhibitory Concentration (activity) (E. faecalis) [µg/mL] | Minimum Inhibitory Concentration (activity) (C. xeroses) [µg/mL] | Minimum Inhibitory Concentration (activity) (B. subtilis) [µg/mL] | Minimum Inhibitory Concentration (activity) (S. aureus SAP0017) [µg/mL] | Minimum Inhibitory Concentration (activity) (S. aureus K147) [µg/mL] | Minimum Inhibitory Concentration (activity) (S. epidermidis) [µg/mL] | other results
CC(C)C[C@@H]1NC(=O)[C@H](CCCN)NC(=O)[C@H](C(C)C)NC(=O)[C@@H]2CCCN2C(=O)[C@@H](Cc2ccccc2)NC(=O)[C@H](CC(C)C)NC(=O)[C@H](CCCN)NC(=O)[C@H](C(C)C)NC(=O)[C@H](CCCN)NC(=O)[C@@H]2CCCN2C(=O)[C@@H](Cc2ccccc2)NC(=O)[C@H](CCCN)NC1=O [GS12FO, FPVOLOFPOVOL] (cyclo(L[Orn][dF]P[Orn]V[Orn]L[dF]PV[Orn])) | 6 | 9 | 22 | 50 | 5 |  |  |  |  |  |  |  |  |  |  |  |  |  |  |  | Antibiotic activity, yeast (yeast): 16 µg/mL; Antibiotic activity, gram-negative ([1]; average activity calculated from Table II): 16 µg/mL; Antibiotic activity, gram-positive [2]: 120 µg/mL; Hemolytic activity (human erythrocytes): 160 µg/mL; Antibiotic activity (Table 11, ring analogs) (P. aeruginosa H188): 5 μg/ml; IC50 ([3]; Table 10, read-out: LPS binding activity: peptide concentration to displace 50% of dansyl-polymyxin from LPS): 105 µM
CC(C)C[C@@H]1NC(=O)[C@H](CCCN)NC(=O)[C@H](C(C)C)NC(=O)[C@@H]2CCCN2C(=O)[C@@H](Cc2ccccc2)NC(=O)[C@H](CC(C)C)NC(=O)[C@H](CCCN)NC(=O)[C@H](C(C)C)NC(=O)[C@@H]2CCCN2C(=O)[C@@H](Cc2ccccc2)NC1=O [GS, cyclo(Val-Orn-Leu-D-Phe-Pro)2, reference compound] (cyclo(V[Orn]L[dF]PV[Orn]L[dF]P)) | 13 | 5 | 19 | 25 | 9 | 9 | 25 | 3.1 | 9 | 18 | 12.5 | 6.2 | 295 |  |  |  |  |  |  |  | Minimum Inhibitory Concentration (activity) (C. Albicans; C. Albicans): 6.2 µg/mL; MIC against gram-negative organisms, particularly E. coli and P. aeruginosa [1]: 3 to 12.5 µg/mL; Antibiotic activity (Table 11, ring analogs) (P. aeruginosa H188): 16 μg/ml
C[C@@H]1NC(=O)[C@H](CCCCN)NC(=O)[C@H](C)NC(=O)[C@@H]2CCCN2C(=O)[C@@H](Cc2ccc(O)cc2)NC(=O)[C@H](C)NC(=O)[C@@H](CCCCN)NC(=O)[C@H](C)NC(=O)[C@H](CCCCN)NC(=O)[C@H](C)NC(=O)[C@@H]2CCCN2C(=O)[C@@H](Cc2ccc(O)cc2)NC(=O)[C@H](C)NC(=O)[C@H](CCCCN)NC1=O [V3L3/A6] |  |  |  |  |  | >200 | >200 | >200 | >200 | >200 | >800 | 75 | 291 | 400 | >200 | 200 | >200 | >200 | >200 | >200 | 
CC(C)C[C@@H]1NC(=O)[C@H](CCCCN)NC(=O)[C@H](CC(C)C)NC(=O)[C@@H]2CCCN2C(=O)[C@@H](Cc2ccccc2)NC(=O)[C@H](CC(C)C)NC(=O)[C@@H](CCCCN)NC(=O)[C@H](CC(C)C)NC(=O)[C@H](CCCCN)NC(=O)[C@H](CC(C)C)NC(=O)[C@@H]2CCCN2C(=O)[C@@H](Cc2ccccc2)NC(=O)[C@H](CC(C)C)NC(=O)[C@H](CCCCN)NC1=O [Y2/F2 V3/L3] |  |  |  |  |  | 9 | 12.5 | 2 | 12.5 | 35 |  | 3.1 | 25 | 3.1 | 1.5 | 1 | 6.2 | 9 | 9 | 2 | Hemolytic activity: peptide concentration for 100% lysis of human erythrocytes (human erythrocytes; Tables 1, 4, 7): 12.5 µg/mL
CC(C)C[C@@H]1NC(=O)[C@H](CCCCN)NC(=O)[C@H](C(C)C)NC(=O)[C@@H]2CCCN2C(=O)[C@@H](Cc2ccccc2)NC(=O)[C@H](CC(C)C)NC(=O)[C@H](CCCCN)NC(=O)[C@H](C(C)C)NC(=O)[C@H](CCCCN)NC(=O)[C@H](CC(C)C)NC(=O)[C@@H]2CCCN2C(=O)[C@@H](Cc2ccccc2)NC(=O)[C@H](C(C)C)NC(=O)[C@@H](CCCCN)NC1=O [Y2/F2] |  |  |  |  |  | 6.2 | 17 | 1.5 | 3.1 | 9 | 40 | 3.1 | 59 | 3.1 | 6.2 | 1.5 | 12.5 | 9 | 12.5 | 3.1 | 

Source: patent US6358921B1, “Antimicrobial peptide compositions and method” (priority 1996, dated 2002)
